# Test system: SSTR2 mutants
# Assay: SSTRs Gi-mediated cAMP inhibition, GloSensor, HEK293, 5 μM forskolin, 15 min room temperature (SSTR2 mutants)
# Type: cell-based, human
# Conditions: for Fold of WT: Gi signaling EC50
# Protocol: The levels of the intracellular 3′, 5′-cyclic AMP (cAMP) were measured by the GloSensor cAMP assay (Promega) as described in the previous studies[28],[41] which has been widely used. The human full-length SSTRs and mutants were cloned into the pcDNA3.1+ vector with a HA signal sequence followed by a Flag tag at the N-terminus. HEK293 cells (ATCC, CRL-1573) were seeded into 6-well microplates at a density of 1.0 × 10^6 cells/well and cultured for 24 h at 37 °C with 5% CO2. Cells were then co-transfected with SSTR wild-type or mutants and GloSensor plasmids. After 24 h of transfection, the cells were dissociated with TrypLE™ Express Enzyme (1X) (Thermo Fisher Scientific) and collected by centrifugation at 500 × g for 5 min. Then the collected cells were suspended in Hank’s balanced salt solution [HBSS (Thermo Fisher Scientific)] supplemented with […] (YEASEN), and then the suspension cells were seeded into 96-well plates with 90 μl/well. After incubating at room temperature for 40 min, 5 μM forskolin and ligands diluted in HBSS were added to each well and the plates were incubated at room temperature for 15 min. […] were measured using the Synergy H1 microplate reader (BioTek) and the data presented are means of at least three independent experiments.
# [1] = Gi signaling, SSTR2 D295(7.36)A, n=3
# [2] = Gi signaling, SSTR2 F127(3.37)A, n=3
# [3] = Gi signaling, SSTR2 F208(5.38)A, n=3
# [4] = Gi signaling, SSTR2 F265(6.44)A, n=3
# [5] = Gi signaling, SSTR2 F294(7.35)A, n=3
# [6] = Gi signaling, SSTR2 I130(3.40)A, n=3
# [7] = Gi signaling, SSTR2 I195(45.52)A, n=3
# [8] = Gi signaling, SSTR2 I284ECL3A, n=3
# [9] = Gi signaling, SSTR2 K291(7.32)A, n=3
# [10] = Gi signaling, SSTR2 L99(2.60)A, n=3
# [11] = Gi signaling, SSTR2 N276(6.55)A, n=3
# [12] = Gi signaling, SSTR2 P220(5.50)A, n=3
# [13] = Gi signaling, SSTR2 Q102(2.63)A, n=3
# [14] = Gi signaling, SSTR2 T194(45.51)A, n=3
# [15] = Gi signaling, SSTR2 V103(2.64)A, n=3
# [16] = Gi signaling, SSTR2 W269(6.48)A, n=3
# [17] = Gi signaling, SSTR2 Y50(1.39)A, n=3
# [18] = Gi signaling, SSTR2 Y205(5.35)A, n=3
# [19] = Gi signaling, SSTR2 Y302(7.43)A, n=3
compound,measurement,setting,value
N#Cc1cccc(-c2ccc3ncc(-c4cc(F)cc(F)c4)c(N4CCC(N)CC4)c3c2)c1O [paltusotine],Fold of WT,SSTR2 Y50(1.39)A,1.90
same,Fold of WT,SSTR2 Y205(5.35)A,0.26
same,Fold of WT,SSTR2 Y302(7.43)A,6.27
same,EC50,[1],2.46 ± 1.67 nM
same,Emax,[1],107.80±3.11 %WT
same,EC50,[2],1.02 ± 1.29 nM
same,Emax,[2],107.70±2.32 %WT
same,EC50,[3],64.2 ± 2.53 nM
same,Emax,[3],91.78±2.89 %WT
same,EC50,[4],11.9 ± 1.45 nM
same,Emax,[4],113.70±4.57 %WT
same,EC50,"Gi signaling, SSTR2 F272A, n=3",63.1 ± 4.1 nM
same,Emax,"Gi signaling, SSTR2 F272A, n=3",57.21±2.64 %WT
same,EC50,[5],2.64 ± 1.26 nM
same,Emax,[5],100.30±10.53 %WT
same,EC50,[6],19 ± 2.64 nM
same,Emax,[6],116.50±4.76 %WT
same,EC50,[7],83.4 ± 1.65 nM
same,Emax,[7],106.20±8.71 %WT
same,EC50,[8],1.22 nM
same,Emax,[8],113.80±5.04 %WT
same,EC50,[9],5.22 ± 8.67 nM
same,Emax,[9],97.49±6.65 %WT
same,EC50,[10],17.1 ± 5.16 nM
same,Emax,[10],107.80±2.34 %WT
same,EC50,[11],1.65 ± 3.51 nM
same,Emax,[11],89.08±4.63 %WT
same,EC50,[12],3.22 ± 1.38 nM
same,Emax,[12],116.00±5.23 %WT
same,EC50,[13],31 ± 6.59 nM
same,Emax,[13],97.26±5.45 %WT
same,EC50,[14],97.7 ± 2.2 nM
same,Emax,[14],85.51±3.13 %WT
same,EC50,[15],33 ± 2.87 nM
same,Emax,[15],87.33±6.38 %WT
same,EC50,[16],0.44 nM
same,Emax,[16],98.94±12.38 %WT
same,EC50,[17],3.6 ± 6.86 nM
same,Emax,[17],106.10±0.90 %WT
same,EC50,[18],0.48 nM
same,Emax,[18],98.71±2.78 %WT
same,EC50,[19],11.8 ± 3.12 nM
same,Emax,[19],55.80±2.34 %WT
same,EC50,"I195A, run 1, best-fit",83.4 nM
same,LogEC50,"I195A, run 1, best-fit",-7.079
same,EC50,"I195A, run 2, best-fit",112 nM
same,LogEC50,"I195A, run 2, best-fit",-6.952
same,EC50,"I195A, run 3, best-fit",54.8 nM
same,LogEC50,"I195A, run 3, best-fit",-7.261
same,Bottom (best-fit),"I195M, run 1",2.531
same,EC50,"I195M, run 1",8.24 nM
same,LogEC50,"I195M, run 1",-8.084
same,Span (best-fit),"I195M, run 1",94.08
same,Top (best-fit),"I195M, run 1",96.61
same,Bottom (best-fit),"I195M, run 2",-2.367
same,EC50,"I195M, run 2",4.64 nM
same,LogEC50,"I195M, run 2",-8.333
same,Span (best-fit),"I195M, run 2",106.3
same,Top (best-fit),"I195M, run 2",103.9
same,EC50,"I284A, run 1, best-fit",1.25 nM
same,LogEC50,"I284A, run 1, best-fit",-8.902
same,EC50,"I284A, run 2, best-fit",1.14 nM
same,LogEC50,"I284A, run 2, best-fit",-8.945
same,EC50,"I284A, run 3, best-fit",1.28 nM
same,LogEC50,"I284A, run 3, best-fit",-8.894
same,"Bottom (best-fit value), cAMP inhibition",K291A-1 (run 1),1.006
same,"LogEC50 (best-fit value), cAMP inhibition",K291A-1 (run 1),-8.362
same,"Span (best-fit value), cAMP inhibition",K291A-1 (run 1),92.81
same,"Top (best-fit value), cAMP inhibition",K291A-1 (run 1),93.82
same,"Bottom (best-fit value), cAMP inhibition",K291A-2 (run 2),-4.234
same,"LogEC50 (best-fit value), cAMP inhibition",K291A-2 (run 2),-8.83
same,"Span (best-fit value), cAMP inhibition",K291A-2 (run 2),114.6
same,"Top (best-fit value), cAMP inhibition",K291A-2 (run 2),110.4
same,"Bottom (best-fit value), cAMP inhibition",K291A-3 (run 3),-10.93
same,"LogEC50 (best-fit value), cAMP inhibition",K291A-3 (run 3),-8.158
same,"Span (best-fit value), cAMP inhibition",K291A-3 (run 3),99.18
same,"Top (best-fit value), cAMP inhibition",K291A-3 (run 3),88.26
same,EC50,"L99A, run 1, best-fit",6.78 nM
same,LogEC50,"L99A, run 1, best-fit",-8.169
same,EC50,"L99A, run 2, best-fit",22.1 nM
same,LogEC50,"L99A, run 2, best-fit",-7.655
same,EC50,"L99A, run 3, best-fit",22.4 nM
same,LogEC50,"L99A, run 3, best-fit",-7.65
same,"Bottom (best-fit value), cAMP inhibition",N276A-1 (run 1),-4.414
same,"LogEC50 (best-fit value), cAMP inhibition",N276A-1 (run 1),-9.003
same,"Span (best-fit value), cAMP inhibition",N276A-1 (run 1),102.7
same,"Top (best-fit value), cAMP inhibition",N276A-1 (run 1),98.25
same,"Bottom (best-fit value), cAMP inhibition",N276A-2 (run 2),-3.382
same,"LogEC50 (best-fit value), cAMP inhibition",N276A-2 (run 2),-8.659
same,"Span (best-fit value), cAMP inhibition",N276A-2 (run 2),88.97
same,"Top (best-fit value), cAMP inhibition",N276A-2 (run 2),85.59
same,"Bottom (best-fit value), cAMP inhibition",N276A-3 (run 3),-1.142
same,"LogEC50 (best-fit value), cAMP inhibition",N276A-3 (run 3),-8.752
same,"Span (best-fit value), cAMP inhibition",N276A-3 (run 3),84.55
same,"Top (best-fit value), cAMP inhibition",N276A-3 (run 3),83.41
same,Bottom (best-fit value),P220A-1 (run 1),6.519
same,LogEC50 (best-fit value),P220A-1 (run 1),-8.456
same,Span (best-fit value),P220A-1 (run 1),112
same,Top (best-fit value),P220A-1 (run 1),118.5
same,Bottom (best-fit value),P220A-2 (run 2),4.552
same,LogEC50 (best-fit value),P220A-2 (run 2),-8.51
